The source of these data is ChEMBL document CHEMBL3259536, “New 2H-chromene-3-carboxamide derivatives: design, synthesis and use as inhibitors of hMAO” (Eur J Med Chem, 2014).

For series [1], the target named is T1, Amine oxidase [flavin-containing] A (Homo sapiens, UniProt P21397).
T1 sequence (P21397 whole entry): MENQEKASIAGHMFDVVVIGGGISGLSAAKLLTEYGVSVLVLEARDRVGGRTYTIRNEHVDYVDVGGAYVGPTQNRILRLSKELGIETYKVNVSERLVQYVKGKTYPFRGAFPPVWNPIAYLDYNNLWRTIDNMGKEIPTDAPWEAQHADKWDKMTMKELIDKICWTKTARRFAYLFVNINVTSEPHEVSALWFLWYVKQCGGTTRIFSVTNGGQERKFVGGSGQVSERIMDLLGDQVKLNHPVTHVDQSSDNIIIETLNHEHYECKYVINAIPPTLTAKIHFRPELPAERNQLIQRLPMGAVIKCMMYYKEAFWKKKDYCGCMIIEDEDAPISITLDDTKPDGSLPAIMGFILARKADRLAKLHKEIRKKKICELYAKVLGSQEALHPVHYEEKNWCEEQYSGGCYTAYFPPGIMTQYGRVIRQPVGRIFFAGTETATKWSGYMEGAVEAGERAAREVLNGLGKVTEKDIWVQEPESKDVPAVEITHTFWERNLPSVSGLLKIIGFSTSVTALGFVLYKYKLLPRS
Put plainly: Inhibition of human recombinant MAO-A expressed in baculovirus infected insect cell microsomes assessed as p-tyramine conversion to resorufin and H2O2 at 60 uM after 15 mins by fluorimetric assay. The note with it: 0.25 h.

Series [2] deals with T2, Amine oxidase [flavin-containing] B (Homo sapiens, UniProt P27338).
T2 sequence (P27338 whole entry): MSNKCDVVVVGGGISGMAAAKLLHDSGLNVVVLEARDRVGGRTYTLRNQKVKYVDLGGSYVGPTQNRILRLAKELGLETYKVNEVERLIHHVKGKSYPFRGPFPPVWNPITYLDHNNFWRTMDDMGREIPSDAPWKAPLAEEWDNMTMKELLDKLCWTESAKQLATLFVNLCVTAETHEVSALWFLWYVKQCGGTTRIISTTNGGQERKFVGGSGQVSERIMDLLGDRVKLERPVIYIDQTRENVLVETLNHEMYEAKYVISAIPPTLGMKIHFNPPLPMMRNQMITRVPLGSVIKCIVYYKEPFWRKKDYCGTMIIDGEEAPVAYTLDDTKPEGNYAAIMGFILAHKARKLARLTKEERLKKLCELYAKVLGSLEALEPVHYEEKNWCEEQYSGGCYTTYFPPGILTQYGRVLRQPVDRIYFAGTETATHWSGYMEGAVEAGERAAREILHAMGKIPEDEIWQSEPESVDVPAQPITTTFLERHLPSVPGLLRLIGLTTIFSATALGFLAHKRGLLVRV
Put plainly: Inhibition of human recombinant MAO-B expressed in baculovirus infected insect cell microsomes assessed as p-tyramine conversion to resorufin and H2O2 after 15 mins by fluorimetric assay.

The species named for the next series is Homo sapiens. Description: Selectivity index, ratio of IC50 for human recombinant MAO-A to IC50 for human recombinant MAO-B.
In series [3] the target is T1, Amine oxidase [flavin-containing] A. Description: Inhibition of human recombinant MAO-A expressed in baculovirus infected insect cell microsomes assessed as p-tyramine conversion to resorufin and H2O2 after 15 mins by fluorimetric assay.
The target in series [4] is T2, Amine oxidase [flavin-containing] B. Description: Inhibition of human recombinant MAO-B expressed in baculovirus infected insect cell microsomes assessed as p-tyramine conversion to resorufin and H2O2 at 60 uM after 15 mins by fluorimetric assay. To be noted: 0.25 h.

Take `O=C(Nc1cccc(C(F)(F)F)c1)c1cc2ccccc2oc1=O`: the “inhibition (INH)” value in series [1] was “Not Active”.
The term IC50 denotes the concentration that inhibits the measured activity by half. For `COc1ccccc1NC(=O)c1cc2ccccc2oc1=O`, the “inhibition (INH)” value in series [1] is “Not Active”. Also, the IC50 in series [2] stood at 35.4 µM. Also, the Ratio IC50 in the series listed under Homo sapiens was 1.7.
For the molecule `O=C(NCCCN1CCOCC1)c1cc2cc(Br)cc(Br)c2oc1=O`, the IC50 came to 32.4 µM in series [3] and 10.6 µM in series [2]. For the same molecule, the Ratio IC50 in the series filed under Homo sapiens was determined as 3.1.
For the molecule `CCC(C)NC(=O)c1cc2cc([N+](=O)[O-])ccc2oc1=O` (centres undefined), the IC50 in series [3] amounted to 37.5 µM; in series [2] it was 19.1 µM. In addition, the Ratio IC50 in the series listed under Homo sapiens came to 1.97.
Turning to `CCCCCCN(CCCCCC)C(=O)c1cc2ccccc2oc1=O`, the IC50 in series [3] is 14.2 µM; in series [2], 8.05 µM. Also, the Ratio IC50 in the series filed under Homo sapiens stood at 1.8.
As to `O=C(c1cc2ccccc2oc1=O)N(c1ccccc1)c1ccccc1`, the “inhibition (INH)” value in series [1] and in series [4] was “Not Active” throughout.
`O=C(c1cc2cc(Br)cc(Br)c2oc1=O)N(c1ccccc1)c1ccccc1`: the “inhibition (INH)” value in series [1] and in series [4] was “Not Active” throughout.
Consider `Cc1cccc(NC(=O)c2cc3ccccc3oc2=O)c1`, for which the “inhibition (INH)” value in series [1] is listed as “Not Active”.
For the molecule `O=C(NCCCN1CCOCC1)c1cc2cc([N+](=O)[O-])ccc2oc1=O`, the “inhibition (INH)” value in series [1] was “Not Active”. Besides, the IC50 in series [2] is 46.1 µM. In the series listed under Homo sapiens, the Ratio IC50 was found to be 1.3.
For the molecule `COc1ccccc1NC(=O)c1cc2cc([N+](=O)[O-])ccc2oc1=O`, the “inhibition (INH)” value in series [1] was “Not Active”. Further, the IC50 in series [2] came to 50 µM. Further, the Ratio IC50 in the series filed under Homo sapiens is 1.2.
For `O=C(NCCCN1CCOCC1)c1cc2ccccc2oc1=O`, the values for the IC50 in series [3] and in series [2] were 42.3 µM and 13.5 µM, respectively. Further, the Ratio IC50 in the series filed under Homo sapiens came out at 3.1.
Consider `Cc1ccccc1NC(=O)c1cc2cc([N+](=O)[O-])ccc2oc1=O`, for which the “inhibition (INH)” value in series [1] is “Not Active”. Further, the IC50 in series [2] was determined as 29.4 µM. Also, the Ratio IC50 in the series filed under Homo sapiens came out at 2.
In the case of `Cc1cccc(NC(=O)c2cc3cc([N+](=O)[O-])ccc3oc2=O)c1`, the “inhibition (INH)” value in series [1] is recorded as “Not Active”. In addition, the IC50 in series [2] stood at 39.1 µM. Besides, in the series filed under Homo sapiens, the Ratio IC50 came out at 1.5.
For `O=C(Nc1cccc(C(F)(F)F)c1)c1cc2cc(Br)cc(Br)c2oc1=O`, the “inhibition (INH)” value in series [1] is on record as “Not Active”. Also, the IC50 in series [2] was 7.09 µM. Moreover, the Ratio IC50 in the series filed under Homo sapiens came to 8.46.
For `Cc1ccccc1NC(=O)c1cc2ccccc2oc1=O` the same measures were “Not Active”, 2.96 µM and 20.3.
Take `O=C(Nc1cccc(C(F)(F)F)c1)c1cc2cc([N+](=O)[O-])ccc2oc1=O`: the “inhibition (INH)” value in series [1] is “Not Active”. In addition, the IC50 in series [2] is 22.8 µM. Also, the Ratio IC50 in the series filed under Homo sapiens amounted to 2.6.
For `Cc1cccc(NC(=O)c2cc3cc(Br)cc(Br)c3oc2=O)c1`, the “inhibition (INH)” value in series [1] is “Not Active”. Also, the IC50 in series [2] came out at 21.5 µM. Also, in the series listed under Homo sapiens, the Ratio IC50 came to 2.78.
Turning to `CC(C)(C)NC(=O)c1cc2cc(Br)cc(Br)c2oc1=O`, the IC50 in series [3] is 31.5 µM; in series [2] it was 14.7 µM. Moreover, in the series listed under Homo sapiens, the Ratio IC50 turned out to be 2.1.
For the molecule `COc1ccccc1NC(=O)c1cc2cc(Br)cc(Br)c2oc1=O`, the “inhibition (INH)” value in series [1] is recorded as “Not Active”. Also, the IC50 in series [2] was determined as 20.2 µM. Moreover, the Ratio IC50 in the series listed under Homo sapiens stood at 2.97.
In the case of `Cc1ccccc1NC(=O)c1cc2cc(Br)cc(Br)c2oc1=O`, the “inhibition (INH)” value in series [1] is recorded as “Not Active”. In addition, in series [2], the IC50 is 4.68 µM. Moreover, in the series filed under Homo sapiens, the Ratio IC50 is 12.8.
